Legend:
[1] = system: A549 lung carcinoma cells; experiment: MNA production in A549 cells; type: cell-based, human; settings: 1 and 10 μM compound, 100 μM nicotinamide, 10 μM SAM, 1 h
[2] = system: human aortic endothelial cells (HAEC); experiment: MNA production in HAEC cells; type: cell-based; settings: 1 and 10 μM compound, 100 μM nicotinamide, 10 μM SAM, 3 hours
[3] = system: NNMT; settings: read-out: reported IC50 value; cited from earlier work

Question: With `CNc1ccc(C(N)=O)cn1` [Peptide 6-MANA, 6-methylamino-nicotinamide] as the compound, how does the “effect on concentration of MNA” value [1] read?
Answer: The value was “significant reduction of MNA concentration”.

Question: What about the “effect on concentration of MNA” value [2] of the same compound?
Answer: Its value is “significant reduction of MNA concentration”.

Question: And the IC50 [3]?
Answer: The IC50 was 588 ± 75 nM.
